The text below walks through data of US10385024B2, “Compounds and methods for inhibiting NHE-mediated antiport in the treatment of disorders associated with fluid retention or salt overload and gastrointestinal tract disorders” (Ardelyx, Inc., priority 2012, dated 2019).

For series [1] the following is noted: human absorption data, from Ertl et al., J. Med. Chem., 2000; cited from earlier work.
Series [2] has as its target T1, Rat NHE-3 (Rattus norvegicus, UniProt P26433).
T1 construct: expressed in transfected cells; host or cells: Opossum kidney (OK) cells (ATCC), transfected by electroporation
The series can be described thus: Cell-based assay of NHE-3 activity (persistent inhibition, after washout). As to conditions: OK cells with rat NHE-3 gene, 60 min incubation, recovery initiated 40 min after compound washout; for IC50: read-out: Rat NHE3 pIC50 (persistent) (converted). The essentials:
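OK cells transiently expressing rat NHE-3 were exposed to 0-30 μM compound in NaCl-HEPES pH 7.4 for 60 min, then washed free of drug before NH4Cl/BCECF-AM loading and acid-loading in Na+-free choline buffer. Na+-dependent pH recovery rates (mean of ≥2 replicates) gave pIC50.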

The next series addresses T2, human NHE-3 (Homo sapiens, UniProt P48764).
T2 construct: expressed in transfected cells; host or cells: Opossum kidney (OK) cells (ATCC), transfected by electroporation
T2 sequence (P48764 26-834): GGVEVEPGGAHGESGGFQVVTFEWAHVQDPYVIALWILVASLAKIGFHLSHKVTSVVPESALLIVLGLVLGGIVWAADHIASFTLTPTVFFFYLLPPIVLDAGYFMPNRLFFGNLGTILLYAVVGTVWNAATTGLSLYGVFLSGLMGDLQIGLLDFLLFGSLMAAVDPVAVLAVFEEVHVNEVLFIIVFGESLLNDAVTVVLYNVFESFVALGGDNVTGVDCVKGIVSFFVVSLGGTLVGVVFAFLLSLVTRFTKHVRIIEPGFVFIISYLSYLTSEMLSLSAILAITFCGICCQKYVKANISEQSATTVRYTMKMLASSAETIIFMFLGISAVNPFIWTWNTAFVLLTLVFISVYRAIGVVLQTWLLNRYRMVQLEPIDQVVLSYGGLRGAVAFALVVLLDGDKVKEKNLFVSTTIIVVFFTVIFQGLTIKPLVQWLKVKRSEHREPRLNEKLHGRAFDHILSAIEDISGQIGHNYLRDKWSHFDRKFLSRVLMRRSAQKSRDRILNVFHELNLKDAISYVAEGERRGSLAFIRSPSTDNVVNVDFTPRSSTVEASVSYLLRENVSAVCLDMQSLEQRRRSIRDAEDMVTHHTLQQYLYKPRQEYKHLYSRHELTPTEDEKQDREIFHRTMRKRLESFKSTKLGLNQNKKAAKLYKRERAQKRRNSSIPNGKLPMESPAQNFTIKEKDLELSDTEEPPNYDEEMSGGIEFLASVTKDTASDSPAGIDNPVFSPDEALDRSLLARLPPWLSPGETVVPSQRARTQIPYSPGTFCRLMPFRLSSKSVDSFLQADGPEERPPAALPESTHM
The series can be described thus: Cell-based assay of NHE-3 activity (human NHE3 inhibition assay). The following applies: OK cells with human NHE-3 gene, BCECF pH dye, 0-30 μM test compound; for IC50: read-out: Human NHE3 pIC50 (converted). The method in brief:
(§1)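 Opossum kidney cells electroporated with rat or human NHE-3, loaded with 5 μM BCECF-AM in NH4Cl-HEPES pH 7.4 for 30 min at RT, then acidified 10 min in Na+-free choline HEPES. Na+-dependent pH recovery rates from BCECF fluorescence, averaged over ≥2 replicates, gave pIC50.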

Series [3] deals with T1, Rat NHE-3. The series can be described thus: Cell-based assay of NHE-3 activity (rat NHE-3 prompt inhibition). As to conditions: OK cells with rat NHE-3 gene, compound present during pH recovery; for IC50: read-out: Rat NHE3 pIC50 (prompt) (converted). The essentials: as §1
In series [4] the test system is absorption of sodium from the intestinal lumen. Description: Inhibition of intestinal sodium absorption (urinary sodium and fecal form). It is filed as in vivo, Sprague-Dawley rats. The following applies: rat; for response vs control in vivo at 3 mg/kg: 3 mg/kg oral gavage, urine 16 h post-dose, asterisks = significance vs vehicle (*P<0.05, **P<0.01, ***P<0.001), read-out: uNa (% of vehicle); for FFS: fecal form score, scale 1 (normal pellet) to 5 (liquid fecal streams), group average, 3 mg/kg oral, 16 h post-dose, vehicle = 1. The essentials: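 Sprague-Dawley rats (8 weeks, n=6) dosed by oral gavage with compound or water vehicle (10 mL/kg) in late afternoon, then housed in metabolic cages. Over 16 h, urinary sodium measured by ion chromatography and expressed as % of vehicle mean; fecal form scored 1–5, averaged from two observations.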

T1 sequence (P26433 29-831): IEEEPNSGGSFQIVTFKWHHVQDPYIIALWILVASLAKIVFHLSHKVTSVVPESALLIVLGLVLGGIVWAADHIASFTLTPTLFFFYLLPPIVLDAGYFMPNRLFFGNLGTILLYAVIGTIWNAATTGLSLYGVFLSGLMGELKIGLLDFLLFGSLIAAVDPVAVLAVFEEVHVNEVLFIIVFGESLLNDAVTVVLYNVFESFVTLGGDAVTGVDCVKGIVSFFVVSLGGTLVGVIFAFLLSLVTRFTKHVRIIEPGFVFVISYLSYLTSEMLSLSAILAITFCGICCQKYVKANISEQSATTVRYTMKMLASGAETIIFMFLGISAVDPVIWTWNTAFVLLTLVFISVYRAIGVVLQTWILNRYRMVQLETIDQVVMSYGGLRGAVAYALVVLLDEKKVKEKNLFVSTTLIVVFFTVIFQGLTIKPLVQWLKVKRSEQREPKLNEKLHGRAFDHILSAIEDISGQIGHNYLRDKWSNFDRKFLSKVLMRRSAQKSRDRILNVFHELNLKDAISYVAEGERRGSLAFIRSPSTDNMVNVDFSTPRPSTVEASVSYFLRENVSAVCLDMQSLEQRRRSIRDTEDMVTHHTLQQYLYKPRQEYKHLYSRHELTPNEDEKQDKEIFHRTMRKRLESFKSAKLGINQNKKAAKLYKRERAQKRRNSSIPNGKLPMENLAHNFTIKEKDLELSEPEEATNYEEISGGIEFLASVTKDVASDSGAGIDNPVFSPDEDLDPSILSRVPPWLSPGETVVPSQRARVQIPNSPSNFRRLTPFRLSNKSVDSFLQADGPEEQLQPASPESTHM

On to `OC[C@H]1O[C@@H](O[C@@H]2[C@@H](CO)OC(O)(CO)[C@H]2O)[C@H](O)[C@@H](O)[C@H]1O` (mixture of isomers) [lactulose], for which the “% FA” value in series [1] is listed as 0.6%.

Regarding `CN1Cc2c(Cl)cc(Cl)cc2[C@H](c2cccc(S(=O)(=O)NCCOCCOCCNC(=O)NCCC(CCNC(=O)NCCOCCOCCNS(=O)(=O)c3cccc([C@@H]4CN(C)Cc5c(Cl)cc(Cl)cc54)c3)(CCNC(=O)NCCOCCOCCNS(=O)(=O)c3cccc([C@@H]4CN(C)Cc5c(Cl)cc(Cl)cc54)c3)NC(=O)COCC(=O)O)c2)C1` [Example 66], the “Rat NHE3 pIC50 (persistent)” value at Rat NHE-3 [2] is given as “C (C NHE3 pIC50 > 7)”. Further, the “Human NHE3 pIC50” value on human NHE-3 is “C (C NHE3 pIC50 > 7)”. At Rat NHE-3 [3], the “Rat NHE3 pIC50 (prompt)” value is “C (C NHE3 pIC50 > 7)”. In addition, in series [4], the response vs control in vivo at 3 mg/kg was less than 35%.

With `CN1Cc2c(Cl)cc(Cl)cc2[C@H](c2cccc(S(=O)(=O)NCCOCCOCCN(C)C(=O)CCC(N)(CCC(=O)N(C)CCOCCOCCNS(=O)(=O)c3cccc([C@@H]4CN(C)Cc5c(Cl)cc(Cl)cc54)c3)CCC(=O)N(C)CCOCCOCCNS(=O)(=O)c3cccc([C@@H]4CN(C)Cc5c(Cl)cc(Cl)cc54)c3)c2)C1` [Example 67], at Rat NHE-3 [2], the “Rat NHE3 pIC50 (persistent)” value is “C (C NHE3 pIC50 > 7)”. Further, the “Human NHE3 pIC50” value at human NHE-3 is “C (C NHE3 pIC50 > 7)”. In addition, on Rat NHE-3 [3], the “Rat NHE3 pIC50 (prompt)” value is “C (C NHE3 pIC50 > 7)”. Moreover, the response vs control in vivo at 3 mg/kg in series [4] is more than 75%.

As for `CN(C)CC(=O)NC(CCC(=O)N(C)CCOCCOCCNS(=O)(=O)c1cccc([C@@H]2CN(C)Cc3c(Cl)cc(Cl)cc32)c1)(CCC(=O)N(C)CCOCCOCCNS(=O)(=O)c1cccc([C@@H]2CN(C)Cc3c(Cl)cc(Cl)cc32)c1)CCC(=O)N(C)CCOCCOCCNS(=O)(=O)c1cccc([C@@H]2CN(C)Cc3c(Cl)cc(Cl)cc32)c1` [Example 68], the “Rat NHE3 pIC50 (persistent)” value at Rat NHE-3 [2] was “C (C NHE3 pIC50 > 7)”. Further, on human NHE-3, the “Human NHE3 pIC50” value is “C (C NHE3 pIC50 > 7)”. Further, the “Rat NHE3 pIC50 (prompt)” value on Rat NHE-3 [3] is recorded as “C (C NHE3 pIC50 > 7)”. The response vs control in vivo at 3 mg/kg in series [4] fell in the range of 35 to 75%.

`CN1Cc2c(Cl)cc(Cl)cc2[C@H](c2cccc(S(=O)(=O)NCCOCCOCCN(C)C(=O)CCC(CCC(=O)N(C)CCOCCOCCNS(=O)(=O)c3cccc([C@@H]4CN(C)Cc5c(Cl)cc(Cl)cc54)c3)(CCC(=O)N(C)CCOCCOCCNS(=O)(=O)c3cccc([C@@H]4CN(C)Cc5c(Cl)cc(Cl)cc54)c3)NC(=O)COCC(=O)O)c2)C1` [Example 70]: the “Rat NHE3 pIC50 (persistent)” value on Rat NHE-3 [2] is “C (C NHE3 pIC50 > 7)”. Besides, the “Human NHE3 pIC50” value on human NHE-3 is “C (C NHE3 pIC50 > 7)”. Also, on Rat NHE-3 [3], the “Rat NHE3 pIC50 (prompt)” value is recorded as “C (C NHE3 pIC50 > 7)”. Also, in series [4], the FFS is on record as 2 and the response vs control in vivo at 3 mg/kg fell in the range of 35 to 75%.

Take `CC(=O)C(CCC(=O)NCCOCCOCCNS(=O)(=O)c1cccc([C@@H]2CN(C)Cc3c(Cl)cc(Cl)cc32)c1)(CCC(=O)NCCOCCOCCNS(=O)(=O)c1cccc([C@@H]2CN(C)Cc3c(Cl)cc(Cl)cc32)c1)CCC(=O)NCCOCCOCCNS(=O)(=O)c1cccc([C@@H]2CN(C)Cc3c(Cl)cc(Cl)cc32)c1` [Example 72, 4-acetyl-N1,N7-bis(2-(2-(2-(3-((S)-6,8-dichloro-2-methyl-1,2,3,4-tetrahydroisoquinolin-4-yl)phenylsulfonamido)ethoxy)ethoxy)ethyl)-4-(3-(2-(2-(2-(3-((S)-6,8-dichloro-2-methyl-1,2,3,4-tetrahydroisoquinolin-4-yl)phenylsulfonamido)ethoxy)ethoxy)ethylamino)-3-oxopropyl)heptanediamide]: the IC50 is less than 100 nM at Rat NHE-3 [2], 100 to 10000 nM on human NHE-3 and 100 to 10000 nM at Rat NHE-3 [3]. The response vs control in vivo at 3 mg/kg in series [4] lay in the range of 35 to 75%.

Take `CC(O)C(CCC(=O)NCCOCCOCCNS(=O)(=O)c1cccc([C@@H]2CN(C)Cc3c(Cl)cc(Cl)cc32)c1)(CCC(=O)NCCOCCOCCNS(=O)(=O)c1cccc([C@@H]2CN(C)Cc3c(Cl)cc(Cl)cc32)c1)CCC(=O)NCCOCCOCCNS(=O)(=O)c1cccc([C@@H]2CN(C)Cc3c(Cl)cc(Cl)cc32)c1` (stereo partly drawn) [Example 73, N1,N7-bis(2-(2-(2-(3-((S)-6,8-dichloro-2-methyl-1,2,3,4-tetrahydroisoquinolin-4-yl)phenylsulfonamido)ethoxy)ethoxy)ethyl)-4-(3-(2-(2-(2-(3-((S)-6,8-dichloro-2-methyl-1,2,3,4-tetrahydroisoquinolin-4-yl)phenylsulfonamido)ethoxy)ethoxy)ethylamino)-3-oxopropyl)-4-(1-hydroxyethyl)heptanediamide]: the IC50 on Rat NHE-3 [2], at human NHE-3 and at Rat NHE-3 [3] was less than 100 nM in each case. Also, in series [4], the FFS is recorded as 2. In addition, the response vs control in vivo at 3 mg/kg in series [4] fell in the range of 35 to 75%.

As to `C=CCc1ccccc1OCC(O)CNC(C)C` (stereo not drawn) [alprenolol], the “% FA” value in series [1] was 96%.

Take `O=C(O)P(=O)(O)O` [foscarnet]: the “% FA” value in series [1] was 17%.

Regarding `OC[C@@H](O)[C@@H](O)[C@H](O)[C@H](O)CO` [mannitol], in series [1], the “% FA” value was 26%.

Regarding `Cc1ccccc1N1C(=O)c2cc(S(N)(=O)=O)c(Cl)cc2NC1C` (stereo not drawn) [metolazone], the “% FA” value in series [1] is listed as 64%.

In the case of `O=C(O)c1cc(/N=N/c2ccc(O)c(C(=O)O)c2)ccc1O` [olsalazine], the “% FA” value in series [1] was 2.3%.

In the case of `C=CCOc1ccccc1OCC(O)CNC(C)C` (stereo not drawn) [oxprenolol], the “% FA” value in series [1] was 97%.

For the compound `CC(C)NCC(O)COc1cccc2[nH]ccc12` (stereo not drawn) [pindolol], the “% FA” value in series [1] is 92%.

On to `CC(=O)Nc1ccc(OCC(O)CNC(C)C)cc1` (stereo not drawn) [practolol], for which, in series [1], the “% FA” value is listed as 95%.

With `OC[C@H]1O[C@H](OC[C@H]2O[C@H](O[C@]3(CO)O[C@H](CO)[C@@H](O)[C@@H]3O)[C@H](O)[C@@H](O)[C@@H]2O)[C@H](O)[C@@H](O)[C@H]1O` [raffinose], the “% FA” value in series [1] is 0.3%.

Consider `O=C(O)c1cc(/N=N/c2ccc(S(=O)(=O)Nc3ccccn3)cc2)ccc1O` [sulfasalazine], for which the “% FA” value in series [1] is recorded as 12%.

On to `CCN1CCCC1CNC(=O)c1cc(S(N)(=O)=O)ccc1OC` (stereo not drawn) [sulpiride], for which, in series [1], the “% FA” value is 36%.

For the compound `NC[C@H]1CC[C@H](C(=O)O)CC1` [tranexamic acid], the “% FA” value in series [1] is given as 55%.
